Assays:
[1] = Solubility test in fats or oils (crystal formation after standing overnight at room temperature); format: physicochemical
From the text: Three samples were used and they included not only a mixture of sesamin and episesamin (sesamin:episesamin=51.1:48.2) but also sesamin and episesamin that were individually purified from the mixture. The wheat germ oil was a product of RIKEN VITAMIN CO., LTD.; the olive oil was a product of nakalai tesque; used as middle-chain fatty acids (MCTs) were ACTOR M-1 (a triglyceride of middle-chain fatty acid with C8:C10:C12=56:42:2) and ACTOR M-2 (a triglyceride of C8 middle-chain fatty acid), both being products of RIKEN VITAMIN CO., LTD. The diacylglycerol was a commercial fat or oil (Econa Cooking Oil of KAO CORPORATION, an edible oil containing about 80% diacylglycerol).
Into test tubes, there were weighed 2 g of the respective fats or oils and various concentrations of the samples that increased from 0.5 to 10% (by weight) by an increment of 0.25%. Then, the test tubes were heated to 120° C. so that sesamin completely dissolved in the fats or oils. Thereafter, the test tubes were allowed to stand overnight at room temperature to examine whether crystals would be formed or not.

[2] = test system: β-oxidation enzymes in the liver; settings: as compared with sesamin; cited from earlier work
[3] = parameters: species or system rats; settings: rat, in vivo
From the text: It may well be said that a preferred mode of ingesting sesamin and/or episesamin is by dissolving them in fat or oil; however, sesamin and/or episesamin is only slightly soluble and has such low solubility in fat or oil (wheat germ oil) that not only is it difficult to incorporate them at high concentrations but, at the same time, even if they are incorporated at low concentrations, a crystal may precipitate during storage on account of their low storage stability. This crystal precipitation can potentially result in lowered absorbability, so considering the storage stability, there has been no alternative to incorporating them at concentrations considerably lower than their solubility in fat or oil (wheat germ oil). Under these circumstances, when one made an attempt to increase the dose of sesamin and/or episesamin that could be ingested at a time, the amount of the solvent fat or oil also had to be increased, inevitably resulting in an excessive calorie intake. In addition, the volume of the sesamin and/or episesamin containing composition that is prescribed becomes so large per unit dosage or their quantities to be ingested become so large that inconveniences in ingestion have occasionally occurred. […]

## c1cc2c(cc1[C@H]1OC[C@H]3[C@@H]1CO[C@@H]3c1ccc3c(c1)OCO3)OCO2 [Episesamin, episesamin]
[1]
  factor of solubility improvement over wheat germ oil: 2.5-5.5
[2]
  gene expression and enzymatic activity of β-oxidation enzymes in the liver: markedly increasing
[3]
  bodily absorption, solution in fat or oil vs suspension in water: significantly superior in bodily absorption

## c1cc2c(cc1[C@H]1OC[C@H]3[C@@H]1CO[C@@H]3c1ccc3c(c1)OCO3)OCO2 [Sesamin, sesamin]
[1]
  factor of solubility improvement over wheat germ oil: 2.5-5.5
[3]
  bodily absorption, solution in fat or oil vs suspension in water: significantly superior in bodily absorption
